For 26 compounds, Ki and pKD results are on record in ChEMBL document CHEMBL1129297 (J Med Chem, 1996).

Bounds are passed on as bounds.

By Ki is commonly meant a measure of affinity in units of concentration, obtained from inhibition or displacement. For orientation: pKD means −log10 of the KD, conventionally taken in molar units.

In data set [1] the target is T1, 5-hydroxytryptamine receptor 1A (Homo sapiens, UniProt P08908).
T1 sequence (P08908 whole entry): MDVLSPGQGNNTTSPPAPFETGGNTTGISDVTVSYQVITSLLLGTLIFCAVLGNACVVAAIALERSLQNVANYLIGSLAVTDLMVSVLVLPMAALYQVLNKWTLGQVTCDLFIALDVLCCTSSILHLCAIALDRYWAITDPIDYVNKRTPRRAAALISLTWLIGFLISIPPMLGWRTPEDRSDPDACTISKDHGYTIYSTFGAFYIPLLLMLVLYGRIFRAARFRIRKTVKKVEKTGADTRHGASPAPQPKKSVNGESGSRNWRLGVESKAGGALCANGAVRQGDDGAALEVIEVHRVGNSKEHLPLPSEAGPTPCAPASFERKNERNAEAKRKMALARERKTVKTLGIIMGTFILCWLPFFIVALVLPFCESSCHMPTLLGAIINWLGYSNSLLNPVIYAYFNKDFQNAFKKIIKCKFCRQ

Data set [2] deals with T2, 5-hydroxytryptamine receptor 1B (Homo sapiens, UniProt P28222).
T2 sequence (P28222 whole entry): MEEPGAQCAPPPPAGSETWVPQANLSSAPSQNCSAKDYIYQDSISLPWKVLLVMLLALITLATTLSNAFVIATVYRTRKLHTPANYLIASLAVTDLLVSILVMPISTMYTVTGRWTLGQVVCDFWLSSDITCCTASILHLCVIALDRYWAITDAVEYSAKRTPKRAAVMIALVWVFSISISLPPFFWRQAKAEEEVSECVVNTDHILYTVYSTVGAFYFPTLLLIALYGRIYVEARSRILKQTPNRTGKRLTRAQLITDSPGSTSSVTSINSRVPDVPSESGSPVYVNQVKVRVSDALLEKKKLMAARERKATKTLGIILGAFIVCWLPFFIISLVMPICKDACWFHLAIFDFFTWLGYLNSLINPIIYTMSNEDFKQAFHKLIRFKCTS
Data set [3] addresses T3, 5-hydroxytryptamine receptor 1D (Homo sapiens, UniProt P28221).
The next data set is filed under the species Cavia porcellus. In words: Dissociation constant using guinea pig caudate membrane homogenate. Format: ADME.
For data set [4], the target named is T3, 5-hydroxytryptamine receptor 1D. Briefly: Binding affinity of compound against 5-HT1Dalpha Binding affinity of compound against 5-HT1D alpha receptors in human.
In data set [5] the target is T2, 5-hydroxytryptamine receptor 1B. In words: Binding affinity towards cloned human 5-hydroxytryptamine 1D receptor was determined using […] as radioligand.
For data set [6] the target is unchanged. Briefly: Displacement of [3H]-5-HT from human 5-hydroxytryptamine 1D receptor beta.

T3 sequence (P28221 whole entry): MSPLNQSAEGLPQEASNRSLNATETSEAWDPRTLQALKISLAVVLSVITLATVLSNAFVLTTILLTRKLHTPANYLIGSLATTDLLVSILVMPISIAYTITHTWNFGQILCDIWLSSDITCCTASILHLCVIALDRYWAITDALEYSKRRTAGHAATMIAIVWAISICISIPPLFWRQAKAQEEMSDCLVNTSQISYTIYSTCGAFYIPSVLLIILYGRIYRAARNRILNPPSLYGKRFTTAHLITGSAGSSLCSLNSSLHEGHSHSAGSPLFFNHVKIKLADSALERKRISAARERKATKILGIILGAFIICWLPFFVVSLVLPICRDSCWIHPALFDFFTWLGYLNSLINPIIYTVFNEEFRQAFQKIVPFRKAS

Take `CCCCCCCCCOc1ccc2[nH]cc(CCN(C)C)c2c1`: in data set [1], the Ki stood at 575 nM. As to `CCCCCCOc1ccc2[nH]c3c(c2c1)CC(N)CC3` (configuration not stated), the Ki in data set [2] turned out to be 188 nM; in data set [3], 1100 nM.

On to `COc1ccc2[nH]cc(CCN)c2c1` [5-METHOXYTRYPTAMINE], for which the affinity in data set [1], expressed as Ki, was 3.2 nM. Turning to `CC(C)(C)CCCCCCOc1ccc2[nH]cc(CCN)c2c1`, the Ki was determined as 920 nM in data set [1] and 16 nM in data set [3]. `CCCCCCCCCOc1ccc2[nH]cc(CCNCCCC)c2c1`: the values for the inhibitory constant (Ki) in data set [1] and in data set [3] were 1550 nM and 223 nM, respectively. The compound `CC(=O)c1ccc2[nH]cc(CCN)c2c1` [ACETRYPTINE] showed a Ki in data set [1] of 1.3 nM. Consider `NC(=O)c1ccc2[nH]c3c(c2c1)CC(N)CC3` (configuration not stated), for which, in data set [2], the Ki was determined as 10 nM. In addition, in the data set listed under Cavia porcellus, the negative-log KD (pKD) stood at 8.

For the compound `CC(C)(C)CCCCCCCOc1ccc2[nH]cc(CCN)c2c1`, the inhibition constant (Ki) in data set [1] was found to be 63 nM.

In data set [2], `COc1ccc2[nH]c3c(c2c1)CC(N(C)C)CC3` (configuration not stated) gave an inhibition constant (Ki) of more than 1000 nM. In turn, `CCC(=O)Oc1ccc2[nH]cc(CCN(C)C)c2c1` showed an inhibition constant Ki in data set [1] of 405 nM. Regarding `CCCCCCCCCOc1ccc2[nH]c3c(c2c1)CC(N)CC3` (configuration not stated), the inhibition constant Ki in data set [2] worked out at 172 nM; in data set [4] it was 2350 nM. In data set [3], `CCCCCCCCOc1ccc2[nH]cc(CCN)c2c1` displayed a Ki of 1.6 nM. With `CCCCCCCOc1ccc2[nH]cc(CCN)c2c1`, the figures for the Ki in data set [1] and in data set [3] were 38 nM and 4.9 nM, respectively.

For the compound `CCCCCCCCCCCOc1ccc2[nH]cc(CCN)c2c1`, the inhibitory constant (Ki) in data set [1] was 885 nM; in data set [3], 69 nM. Turning to `CCCCCCCCCCOc1ccc2[nH]cc(CCN)c2c1`, the Ki worked out at 575 nM in data set [1] and 42 nM in data set [3]. On to `CCc1ccc2[nH]cc(CCN)c2c1`, for which the inhibition constant Ki in data set [1] turned out to be 20 nM. In the case of `CCCCCCCCCOc1ccc2[nH]c3c(c2c1)CCN(C)C3`, the Ki in data set [5] was more than 1000 nM. Regarding `COc1ccc2[nH]c3c(c2c1)CC(N)CC3` (configuration not stated), the values for the inhibition constant Ki in data set [6] and in data set [3] were 342 nM and 1190 nM, respectively.

Turning to `NCCc1c[nH]c2ccc(OCCCCC3CCCCC3)cc12`, the figures for the inhibitory constant (Ki) in data set [1] and in data set [3] were 800 nM and 55 nM, respectively.

Regarding `CCCCCCCCCCc1ccc2[nH]c3c(c2c1)CC(N)CC3` (configuration not stated), the Ki in data set [5] is more than 1000 nM. With `CCCOc1ccc2[nH]cc(CCN)c2c1`, in data set [1], the affinity, expressed as Ki, was 88 nM. Still for that read-out and setting: for `CCc1ccc2[nH]cc(CCN(C)C)c2c1` the value was 15 nM. For `CCCCCOc1ccc2[nH]cc(CCN)c2c1`, the inhibitory constant (Ki) is 42 nM in data set [1] and 1.5 nM in data set [3]. In turn, `CCCCCCCCCCc1ccc2[nH]cc(CCN)c2c1` came in with a Ki in data set [3] of 210 nM. The same measure, in the same setting: under `CC(C)CCCCCCOc1ccc2[nH]cc(CCN)c2c1` stands 42 nM. Regarding `CCCCCCCCC(=O)Oc1ccc2[nH]cc(CCN(C)C)c2c1`, the affinity in data set [1], expressed as Ki, was 9.3 nM.
